Results as given in PubChem BioAssay AID747 (Structural Genomics Consortium, 2007).

Each molecule was assayed against Sulfotransferase 1E1 (Homo sapiens) (UniProt P49888) (assay: ligand binding to SULT1E1 via aggregation temperature – biophysical, StarGazer light scattering, human (AID 747)). Details: purified SULT1E1, StarGazer light scattering thermal shift; at 1 mM; stronger effect = higher value.
Sequence of Sulfotransferase 1E1 (Homo sapiens) (P49888 whole entry, looked up): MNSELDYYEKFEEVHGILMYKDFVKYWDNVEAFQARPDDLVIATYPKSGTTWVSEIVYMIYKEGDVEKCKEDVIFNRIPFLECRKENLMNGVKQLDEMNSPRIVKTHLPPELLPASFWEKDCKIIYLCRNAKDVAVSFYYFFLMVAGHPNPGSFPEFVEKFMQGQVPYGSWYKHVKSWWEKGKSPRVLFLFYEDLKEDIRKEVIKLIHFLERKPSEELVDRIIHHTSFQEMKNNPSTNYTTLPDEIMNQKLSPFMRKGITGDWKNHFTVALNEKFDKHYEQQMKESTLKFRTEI

Row | Compound | Tagg shift [°C]
1 | COc1cc(C=O)ccc1O | 0
2 | Oc1ccc2ccccc2c1 | 0
3 | O=[N+]([O-])c1cc(Cl)c(O)c(Cl)c1 | 1.4
4 | C[C@]12CC[C@@H]3c4ccc(O)cc4CC[C@H]3[C@@H]1CCC2=O | 1.1
5 | COC(=O)CCC(C)C1CCC2C3CCC4CC(O)CCC4(C)C3CCC12C (stereo unspecified) | 1.2
6 | NC(Cc1cc(I)c(Oc2ccc(O)c(I)c2)c(I)c1)C(=O)O (stereo unspecified) | 2.6
7 | Cc1ncc(COP(=O)(O)O)c(C=O)c1O | 3.95
8 | NC[C@H](O)c1ccc(O)c(O)c1 | 0
9 | C[C@H]1CCC[C@H](O)CCC/C=C/c2cc(O)cc(O)c2C(=O)O1 | 1.3
10 | O=C(O)c1ccccc1O | 0
11 | CN1CCc2cccc3c2C1Cc1ccc(O)c(O)c1-3 (stereo unspecified) | 0
12 | CNCC(O)c1ccc(O)c(O)c1 (stereo unspecified) | 0
13 | Cc1cccc(Nc2ccccc2C(=O)O)c1C | 2.35
14 | CCCc1ccccc1O | 0
15 | Nc1ccc(O)cc1 | 0
16 | NCCc1ccc(O)c(O)c1 | 0
17 | C[C@]12CC[C@H](OS(=O)(=O)O)CC1=CC[C@@H]1[C@@H]2CC[C@]2(C)C(=O)CC[C@@H]12 | 1.1
18 | CC(C)NCC(O)c1ccc(O)c(O)c1 (stereo unspecified) | 0
19 | O=c1c(O)c(-c2ccc(O)c(O)c2)oc2cc(O)cc(O)c12 | 1.95
20 | CCC(C)c1ccccc1O (stereo unspecified) | 0
21 | Oc1cccc2ccccc12 | 0
22 | Oc1c(Cl)c(Cl)c(Cl)c(Cl)c1Cl | 0
23 | C[C@]12CC[C@@H]3c4cc(O)c(O)cc4CC[C@H]3[C@@H]1CC[C@@H]2O | 1.55
24 | CCc1ccccc1O | 0
25 | Cc1ccc(O)cc1 | 0
26 | Oc1ccc(/C=C/c2cc(O)cc(O)c2)cc1 | 2.25
